Results: patent US20260109708A1, “COMPOUNDS AND COMPOSITIONS USEFUL AS DEGRADERS OF MK2 KINASE” (Celgene Corporation, priority 2023, published 2026)

Biological target: T1, p38a activated, mitogen-activated protein kinase-activated protein kinase 2 (MAPKAP-K2 or MK2) enzyme (Homo sapiens, UniProt P49137)
T1 construct: purchased Invitrogen PV3317
Assay: MK2 OMNIA biochemical assay (AssayQuant continuous-read kinase assay)
Settings: [MK-2]=0.05 nM, [ATP]=100 μM, [AQT0425]=10 μM
From the text: Example 56.2. Mitogen-Activated Protein Kinase-Activated Protein Kinase 2 AssayQuant Technologies® Assay for Compound Potency Assessment (MK2 OMNIA Biochemical Assay)
The protocol below describes a continuous-read kinase assay optimized to measure potency of compounds against p38a activated, mitogen-activated protein kinase-activated protein kinase 2 (MAPKAP-K2 or MK2) enzyme.
A 1.25× stock solution of MK2 (PV3317, from Invitrogen) and a 5× stock solution of ATP and Sox conjugated peptide substrate, AQT0425 (CSKS-AQT0425B, from AssayQuant Technologies), were prepared in 1× kinase reaction buffer consisting of 50 mM HEPES, pH 7.5, 0.01% Brij-35, 0.55 mM EGTA, 10 mM MgCl2 and 1 mM DTT.
10 μL of the ATP and substrate solution mix was added to a Coming (3574) 384-well, white, non-binding surface microtiter plate containing 0.5 μL of serially diluted test compounds prepared in DMSO. The reactions were started with the addition of 40 μL of the enzyme solution and monitored every 71 seconds for 240 min at kex 360/λem 485 in a Synergy H4 plate reader from BioTek at room temperature.
The initial linear portions of the net progress curves were fit according to a linear equation to yield the slope and percentage of inhibition (% inhibition) at each compound concentration. The net progress curves obtained during the entirety of reactions were also fit according to an ascending single-exponential equation (Eq. 1) to yield Vobs values at each compound concentration. Plots of % Inhibition versus degrader concentrations were fit according to a dose-response equation (Eq. 2) to generate IC50 and Hill slope values while plots of Vobs versus degrader concentration were fit according to Equation 3 (Eq. 3) to generate apparent Kinact values using the GraphPad PRISM software.
where F is the fluorescence intensity from the plate reader, V0 is a constant reflecting the relationship between the instrument readout and product concentration, t is time, e is Euler's number, and Vobs is the observed inactivation rate constant.
where % Inhibition is percentage of inhibition, IC50 is half maximal inhibitory concentration, [I] is the degraders concentration, and n is the Hill slope.
where kobs is the observed inactivation rate constant, Kinact is the apparent inactivation rate constant, K1 is the apparent inhibition constant, and [I] is the degrader concentration.

T1 sequence (P49137 whole entry): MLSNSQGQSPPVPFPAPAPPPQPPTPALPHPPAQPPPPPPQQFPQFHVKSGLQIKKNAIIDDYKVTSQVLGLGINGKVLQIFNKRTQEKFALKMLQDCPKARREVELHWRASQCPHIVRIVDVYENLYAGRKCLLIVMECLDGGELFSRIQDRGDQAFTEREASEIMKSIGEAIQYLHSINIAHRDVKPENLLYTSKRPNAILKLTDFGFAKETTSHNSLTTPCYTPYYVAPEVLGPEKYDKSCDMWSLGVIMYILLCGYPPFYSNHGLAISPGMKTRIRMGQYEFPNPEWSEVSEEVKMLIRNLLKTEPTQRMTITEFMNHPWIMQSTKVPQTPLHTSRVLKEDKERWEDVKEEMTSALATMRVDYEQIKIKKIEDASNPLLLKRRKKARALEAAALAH

| SMILES | IC50 |
| --- | --- |
| C[C@@H]1CNc2c(sc3ccc4nc(-c5cn(C6CCN(CCN7CCN(c8ccc9c(C%10CCC(=O)NC%10=O)nn(C)c9c8)CC7)CC6)nn5)ccc4c23)C(=O)N1 (stereo partly drawn) [Ex 50, 3-(1-Methyl-6-(4-(2-(4-(4-((R)-10-methyl-8-oxo-9,10,11,12-tetrahydro-8H-[1,4]diazepino[5′,6′:4,5]thieno[3,2-f]quinolin-3-yl)-1H-1,2,3-triazol-1-yl)piperidin-1-yl)ethyl)piperazin-1-yl)-1H-indazol-3-yl)piperidine-2,6-dione] | < 150 nM |
| C[C@@H]1COc2c(sc3ccc4nc(C#CC5CCN(C(=O)C(=O)N6CCN(c7ccc(C8CCC(=O)NC8=O)cc7)CC6)CC5)ccc4c23)C(=O)N1 (stereo partly drawn) [Ex 55, 3-(4-(4-(2-(4-(((R)-10-Methyl-8-oxo-8,9,10,11-tetrahydro-[1,4]oxazepino[7′,6′:4,5]thieno[3,2-f]quinolin-3-yl)ethynyl)piperidin-1-yl)-2-oxoacetyl)piperazin-1-yl)phenyl)piperidine-2,6-dione] | 501 to 1000 nM |
| C[C@@H]1CNc2c(sc3ccc4nc(-c5ccc(C(=O)NC6CCN(c7ccc8c(C9CCC(=O)NC9=O)nn(C)c8c7)CC6)cc5F)ccc4c23)C(=O)N1 (stereo partly drawn) [Ex 1, N-(1-(3-(2,6-dioxopiperidin-3-yl)-1-methyl-1H-indazol-6-yl)piperidin-4-yl)-3-fluoro-4-((R)-10-methyl-8-oxo-9,10,11,12-tetrahydro-8H-[1,4]diazepino[5′,6′:4,5]thieno[3,2-f]quinolin-3-yl)benzamide] | < 150 nM |
| C[C@@H]1CNc2c(sc3ccc4nc(-c5ccc(C(=O)N[C@H]6CC[C@H](CN7CCN(c8ccc(C9CCC(=O)NC9=O)cc8)CC7)CC6)cc5F)ccc4c23)C(=O)N1 (stereo partly drawn) [Ex 9, N-(trans-4-((4-(4-(2,6-Dioxopiperidin-3-yl)phenyl)piperazin-1-yl)methyl)cyclohexyl)-3-fluoro-4-((R)-10-methyl-8-oxo-9,10,11,12-tetrahydro-8H-[1,4]diazepino[5′,6′:4,5]thieno[3,2-f]quinolin-3-yl)benzamide] | < 150 nM |
| C[C@@H]1CNc2c(sc3ccc4nc(-n5cc(C6CN(CCN7CCN(c8ccc(C9CCC(=O)NC9=O)cc8)CC7)C6)nn5)ccc4c23)C(=O)N1 (stereo partly drawn) [Ex 53, 3-(4-(4-(2-(3-(1-((R)-10-Methyl-8-oxo-9,10,11,12-tetrahydro-8H-[1,4]diazepino[5′,6′:4,5]thieno[3,2-f]quinolin-3-yl)-1H-1,2,3-triazol-4-yl)azetidin-1-yl)ethyl)piperazin-1-yl)phenyl)piperidine-2,6-dione] | < 150 nM |
| C[C@@H]1CNc2c(sc3ccc4nc(-c5cccc(C6CCN(CCN7CCN(c8ccc(C9CCC(=O)NC9=O)cc8)CC7)CC6)c5)ccc4c23)C(=O)N1 (stereo partly drawn) [Ex 18, 3-(4-(4-(2-(4-(3-((R)-10-Methyl-8-oxo-9,10,11,12-tetrahydro-8H-[1,4]diazepino[5′,6′:4,5]thieno[3,2-f]quinolin-3-yl)phenyl)piperidin-1-yl)ethyl)piperazin-1-yl)phenyl)piperidine-2,6-dione] | < 150 nM |
| C[C@@H]1CNc2c(sc3ccc4nc(-c5cnc(C6CCN(CCN7CCN(c8ccc(C9CCC(=O)NC9=O)cc8)CC7)CC6)nc5)ccc4c23)C(=O)N1 (stereo partly drawn) [Ex 36, 3-(4-(4-(2-(4-(5-((R)-10-Methyl-8-oxo-9,10,11,12-tetrahydro-8H-[1,4]diazepino[5′,6′:4,5]thieno[3,2-f]quinolin-3-yl)pyrimidin-2-yl)piperidin-1-yl)ethyl)piperazin-1-yl)phenyl)piperidine-2,6-dione] | 151 to 500 nM |
| C[C@@H]1COc2c(sc3ccc4nc(-c5cccc(N6CCN(CCN7CCN(c8ccc(C9CCC(=O)NC9=O)cc8)CC7)CC6)c5)ccc4c23)C(=O)N1 (stereo partly drawn) [Ex 16, 3-(4-(4-(2-(4-(3-((R)-10-Methyl-8-oxo-8,9,10,11-tetrahydro-[1,4]oxazepino[7′,6′:4,5]thieno[3,2-f]quinolin-3-yl)phenyl)piperazin-1-yl)ethyl)piperazin-1-yl)phenyl)piperidine-2,6-dione] | < 150 nM |
| C[C@@H]1CNc2c(sc3ccc4nc(-c5ccc(C(=O)N[C@H]6CC[C@H](CCN7CCN(c8ccc(C9CCC(=O)NC9=O)cc8)CC7)CC6)cc5F)ccc4c23)C(=O)N1 (stereo partly drawn) [Ex 10, N-((trans)-4-(2-(4-(4-(2,6-Dioxopiperidin-3-yl)phenyl)piperazin-1-yl)ethyl)cyclohexyl)-3-fluoro-4-((R)-10-methyl-8-oxo-9,10,11,12-tetrahydro-8H-[1,4]diazepino[5′,6′:4,5]thieno[3,2-f]quinolin-3-yl)benzamide] | 151 to 500 nM |
| C[C@@H]1CNc2c(sc3ccc4nc(-c5ccc(N6CCN(CCN7CCC(c8ccc(C9CCC(=O)NC9=O)cc8)CC7)CC6)cc5)ccc4c23)C(=O)N1 (stereo partly drawn) [Ex 20, 3-(4-(1-(2-(4-(4-((R)-10-Methyl-8-oxo-9,10,11,12-tetrahydro-8H-[1,4]diazepino[5′,6′:4,5]thieno[3,2-f]quinolin-3-yl)phenyl)piperazin-1-yl)ethyl)piperidin-4-yl)phenyl)piperidine-2,6-dione] | < 150 nM |
| C[C@@H]1CNc2c(sc3ccc4nc(-c5ccc(C6CCN(CCN7CCN(c8ccc(C9CCC(=O)NC9=O)cc8)CC7)CC6)cc5)ccc4c23)C(=O)N1 (stereo partly drawn) [Ex 27, 3-(4-(4-(2-(4-(4-((R)-10-Methyl-8-oxo-9,10,11,12-tetrahydro-8H-[1,4]diazepino[5′,6′:4,5]thieno[3,2-f]quinolin-3-yl)phenyl)piperidin-1-yl)ethyl)piperazin-1-yl)phenyl)piperidine-2,6-dione] | < 150 nM |
| C[C@@H]1CNc2c(sc3ccc4nc(-c5cnn(C6CCN(CCN7CCN(c8ccc(C9CCC(=O)NC9=O)cc8)CC7)CC6)c5)ccc4c23)C(=O)N1 (stereo partly drawn) [Ex 43, 3-(4-(4-(2-(4-(4-((R)-10-Methyl-8-oxo-9,10,11,12-tetrahydro-8H-[1,4]diazepino[5′,6′:4,5]thieno[3,2-f]quinolin-3-yl)-1H-pyrazol-1-yl)piperidin-1-yl)ethyl)piperazin-1-yl)phenyl)piperidine-2,6-dione] | < 150 nM |
| C[C@@H]1CNc2c(sc3ccc4nc(-c5ccc(C(=O)NCCN6CCN(c7ccc8c(C9CCC(=O)NC9=O)nn(C)c8c7)CC6)cc5F)ccc4c23)C(=O)N1 (stereo partly drawn) [Ex 2, N-(2-(4-(3-(2,6-dioxopiperidin-3-yl)-1-methyl-1H-indazol-6-yl)piperazin-1-yl)ethyl)-3-fluoro-4-((R)-10-methyl-8-oxo-9,10,11,12-tetrahydro-8H-[1,4]diazepino[5′,6′:4,5]thieno[3,2-f]quinolin-3-yl)benzamide] | < 150 nM |
| C[C@@H]1CNc2c(sc3ccc4nc(-n5cc(C6CCN(CCN7CCN(c8ccc9c(C%10CCC(=O)NC%10=O)nn(C)c9c8)CC7)CC6)nn5)ccc4c23)C(=O)N1 (stereo partly drawn) [Ex 46, 3-(1-Methyl-6-(4-(2-(4-(1-((R)-10-methyl-8-oxo-9,10,11,12-tetrahydro-8H-[1,4]diazepino[5′,6′:4,5]thieno[3,2-f]quinolin-3-yl)-1H-1,2,3-triazol-4-yl)piperidin-1-yl)ethyl)piperazin-1-yl)-1H-indazol-3-yl)piperidine-2,6-dione] | < 150 nM |
| C[C@@H]1CNc2c(sc3ccc4nc(-c5cccc(N6CCN(C(=O)C(=O)N7CCN(c8ccc(C9CCC(=O)NC9=O)cc8)CC7)CC6)c5)ccc4c23)C(=O)N1 (stereo partly drawn) [Ex 13, 3-(4-(4-(2-(4-(3-((R)-10-Methyl-8-oxo-9,10,11,12-tetrahydro-8H-[1,4]diazepino[5′,6′:4,5]thieno[3,2-f]quinolin-3-yl)phenyl)piperazin-1-yl)-2-oxoacetyl)piperazin-1-yl)phenyl)piperidine-2,6-dione] | < 150 nM |
| C[C@@H]1CNc2c(sc3ccc4nc(-c5ccc(N6CCN(CCN7CCN(c8ccc(C9CCC(=O)NC9=O)cc8)CC7)CC6)cc5)ccc4c23)C(=O)N1 (stereo partly drawn) [Ex 22, 3-(4-(4-(2-(4-(4-((R)-10-Methyl-8-oxo-9,10,11,12-tetrahydro-8H-[1,4]diazepino[5′,6′:4,5]thieno[3,2-f]quinolin-3-yl)phenyl)piperazin-1-yl)ethyl)piperazin-1-yl)phenyl)piperidine-2,6-dione] | 151 to 500 nM |
| C[C@@H]1CNc2c(sc3ccc4nc(-c5ccc(N6CCC(CCN7CCN(c8ccc(C9CCC(=O)NC9=O)cc8)CC7)CC6)cc5)ccc4c23)C(=O)N1 (stereo partly drawn) [Ex 39, 3-(4-(4-(2-(1-(4-((R)-10-methyl-8-oxo-9,10,11,12-tetrahydro-8H-[1,4]diazepino[5′,6′:4,5]thieno[3,2-f]quinolin-3-yl)phenyl)piperidin-4-yl)ethyl)piperazin-1-yl)phenyl)piperidine-2,6-dione] | 151 to 500 nM |
